Like-named read-outs stand apart in the source and are kept apart here.
Tests used:
Type in all cases: cell-based
Or47a/Or83b = target: T1, Or47a/Or83b (Drosophila melanogaster, UniProt P81921+Q9VNB5); test: Ca2+-imaging of stable Flip-In T-Rex cell line Or47a/Or83b; conditions: for inhibition at 4 µM: read-out: Percent Inhibition OR47a OR83b; for IC50: read-out: IC50 OR47a
T1 construct: Full-length cDNAs for mosquito (Anopheles gambiae) odorant receptor (OR1, OR2, OR7, OR8, OR28), and fly (Drosophila melanogaster) odorant receptor (Or47a, Or83b); expressed in transfected cells
T1 sequence (P81921 1-385): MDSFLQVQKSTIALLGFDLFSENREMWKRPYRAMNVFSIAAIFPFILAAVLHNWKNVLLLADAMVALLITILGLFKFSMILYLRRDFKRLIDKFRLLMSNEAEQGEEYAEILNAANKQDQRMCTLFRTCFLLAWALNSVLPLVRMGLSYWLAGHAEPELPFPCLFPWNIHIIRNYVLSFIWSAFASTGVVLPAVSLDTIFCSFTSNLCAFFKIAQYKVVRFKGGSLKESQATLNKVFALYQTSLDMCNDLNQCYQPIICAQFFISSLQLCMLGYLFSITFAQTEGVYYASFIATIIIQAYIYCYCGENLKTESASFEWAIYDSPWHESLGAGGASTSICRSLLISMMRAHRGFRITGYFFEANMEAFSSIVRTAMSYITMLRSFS
T1 sequence (Q9VNB5 1-486): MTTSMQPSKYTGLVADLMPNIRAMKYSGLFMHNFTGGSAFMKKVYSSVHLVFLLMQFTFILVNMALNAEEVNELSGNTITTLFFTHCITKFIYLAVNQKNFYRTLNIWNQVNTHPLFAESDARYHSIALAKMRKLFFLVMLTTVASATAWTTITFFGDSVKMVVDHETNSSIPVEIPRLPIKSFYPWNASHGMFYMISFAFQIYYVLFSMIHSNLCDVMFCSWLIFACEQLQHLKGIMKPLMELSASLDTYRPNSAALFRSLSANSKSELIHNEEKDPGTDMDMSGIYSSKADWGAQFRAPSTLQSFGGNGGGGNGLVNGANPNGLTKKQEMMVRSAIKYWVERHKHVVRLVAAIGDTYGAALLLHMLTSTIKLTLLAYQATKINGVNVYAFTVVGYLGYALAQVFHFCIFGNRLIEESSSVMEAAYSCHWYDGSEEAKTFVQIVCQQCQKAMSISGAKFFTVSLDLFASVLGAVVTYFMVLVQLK
In short: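 Flp-In T-REx stable lines (Drosophila Or47a/Or83b or mouse 5HT3), 10,000 cells/well cultured 2 days, induced with tetracycline 1 day before assay.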

OR28/OR7 = OR28/OR7 (Anopheles gambiae, UniProt A0A1S4GFY3+Q7QCC7); test: Ca2+-imaging of stable HEK293T cell line OR28/OR7; conditions: for inhibition at 4 µM: HEK-293T, read-out: Percent Inhibition OR28 OR7
In short: (§1)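 Stable HEK293T lines: Anopheles ORs co-expressed with co-receptor OR7, or mouse TRPM8 alone. Cells loaded with Ca-4 dye 1.5 hr at room temperature. Compound added with odorant solution in HBSS. Ca2+ rise read as fluorescence at 525 nm (excitation 485 nm).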

TRP channel (TRPM8) = target: T2, TRP channel (TRPM8) (Mus musculus, UniProt Q8R4D5); test: Ca2+-imaging of stable HEK293T cell line TRPM8; conditions: HEK-293T; compound applied at 4 μM; read-out: Percent Inhibition TRPM8
T2 construct: Full-length cDNAs for mosquito (Anopheles gambiae) odorant receptor (OR1, OR2, OR7, OR8, OR28), and fly (Drosophila melanogaster) odorant receptor (Or47a, Or83b), mouse TRP channel (TRPM8); expressed in transfected cells
In short: as §1

Chain of OR28/OR7 (A0A1S4GFY3 entry or part of it): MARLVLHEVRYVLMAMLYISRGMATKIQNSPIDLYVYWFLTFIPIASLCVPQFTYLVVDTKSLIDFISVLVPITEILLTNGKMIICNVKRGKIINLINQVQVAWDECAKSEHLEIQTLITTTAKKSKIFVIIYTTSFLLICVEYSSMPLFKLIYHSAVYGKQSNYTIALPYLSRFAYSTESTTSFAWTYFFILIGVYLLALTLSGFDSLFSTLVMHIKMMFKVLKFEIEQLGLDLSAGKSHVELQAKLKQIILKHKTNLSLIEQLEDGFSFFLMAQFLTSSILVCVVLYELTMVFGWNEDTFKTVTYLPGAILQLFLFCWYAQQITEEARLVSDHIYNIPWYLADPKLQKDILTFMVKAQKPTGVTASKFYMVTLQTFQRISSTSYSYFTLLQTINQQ
Chain of OR28/OR7 (Q7QCC7 whole entry): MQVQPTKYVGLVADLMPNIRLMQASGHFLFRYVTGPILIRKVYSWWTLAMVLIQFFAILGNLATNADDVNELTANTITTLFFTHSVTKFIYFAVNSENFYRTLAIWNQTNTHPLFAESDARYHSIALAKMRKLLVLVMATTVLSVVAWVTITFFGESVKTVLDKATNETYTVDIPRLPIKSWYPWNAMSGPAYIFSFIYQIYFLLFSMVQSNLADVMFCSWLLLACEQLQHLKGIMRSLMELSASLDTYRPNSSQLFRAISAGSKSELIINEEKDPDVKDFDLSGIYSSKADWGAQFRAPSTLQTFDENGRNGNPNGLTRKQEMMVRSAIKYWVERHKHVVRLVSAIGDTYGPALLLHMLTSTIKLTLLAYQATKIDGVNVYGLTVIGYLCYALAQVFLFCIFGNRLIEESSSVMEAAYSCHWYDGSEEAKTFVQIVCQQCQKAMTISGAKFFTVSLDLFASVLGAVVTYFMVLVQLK
T2 sequence (Q8R4D5 whole entry): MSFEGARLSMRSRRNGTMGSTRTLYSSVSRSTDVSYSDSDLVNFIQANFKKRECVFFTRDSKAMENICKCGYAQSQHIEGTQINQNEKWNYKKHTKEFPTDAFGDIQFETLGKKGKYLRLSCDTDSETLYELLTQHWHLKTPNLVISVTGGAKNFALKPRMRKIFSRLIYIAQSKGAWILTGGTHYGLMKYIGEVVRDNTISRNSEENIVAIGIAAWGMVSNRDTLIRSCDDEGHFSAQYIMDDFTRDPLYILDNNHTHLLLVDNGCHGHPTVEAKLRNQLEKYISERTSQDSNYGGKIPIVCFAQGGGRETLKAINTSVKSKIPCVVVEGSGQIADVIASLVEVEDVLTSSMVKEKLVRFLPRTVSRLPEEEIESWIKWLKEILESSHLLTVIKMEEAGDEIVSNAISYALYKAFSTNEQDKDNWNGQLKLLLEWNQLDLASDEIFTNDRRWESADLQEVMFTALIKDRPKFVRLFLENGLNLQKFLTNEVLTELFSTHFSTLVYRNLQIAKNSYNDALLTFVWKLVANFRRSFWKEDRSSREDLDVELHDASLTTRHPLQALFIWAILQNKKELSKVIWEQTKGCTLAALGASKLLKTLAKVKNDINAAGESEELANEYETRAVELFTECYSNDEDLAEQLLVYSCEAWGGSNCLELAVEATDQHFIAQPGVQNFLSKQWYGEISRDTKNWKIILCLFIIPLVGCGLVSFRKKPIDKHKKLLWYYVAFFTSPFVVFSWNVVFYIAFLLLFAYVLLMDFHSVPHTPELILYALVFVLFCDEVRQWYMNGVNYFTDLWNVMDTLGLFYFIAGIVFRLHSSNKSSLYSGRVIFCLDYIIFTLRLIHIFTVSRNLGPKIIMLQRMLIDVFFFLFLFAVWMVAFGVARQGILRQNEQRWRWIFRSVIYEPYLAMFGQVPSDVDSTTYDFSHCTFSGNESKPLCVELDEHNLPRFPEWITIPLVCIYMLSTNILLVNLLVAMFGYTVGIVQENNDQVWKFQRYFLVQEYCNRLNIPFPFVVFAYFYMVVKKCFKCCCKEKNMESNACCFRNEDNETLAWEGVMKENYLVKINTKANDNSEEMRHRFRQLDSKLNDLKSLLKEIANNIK

| Structure (SMILES) | inhibition at 4 µM (Or47a/Or83b; compound applied at 4 μM) | inhibition at 4 µM (OR28/OR7; compound applied at 4 μM) | IC50 (OR28/OR7; Table B, read-out: IC50 OR28) | inhibition at 4 µM (TRP channel (TRPM8)) | IC50 (Or47a/Or83b; Table B) | IC50 (Or47a/Or83b) | inhibition at 4 µM (Or47a/Or83b) | IC50 (OR28/OR7) | inhibition at 4 µM (OR28/OR7) |
| --- | --- | --- | --- | --- | --- | --- | --- | --- | --- |
| Cc1ccc(CN(Cc2ccc(F)cc2)C(=O)CN(C(=O)NC(C)(C)C)C2CC2)s1 [RU-0052360] | 26 to 50% | > 75% | 100 to 1000 nM | 26 to 50% |  |  |  |  |  |
| CCOCCCN(CC(=O)N(Cc1ccc2c(c1)OCO2)Cc1sccc1C)C(=O)NC(C)(C)C [RU-0052340] | 26 to 50% | > 75% | < 100 nM | < 25% |  |  |  |  |  |
| CC(NCc1ccccc1)c1nc2ccccc2c(=O)n1-c1ccc(Cl)cc1 (stereo not drawn) [RU-0072535] | 26 to 50% | > 75% | < 100 nM | < 25% |  |  |  |  |  |
| COCCCN(CC(=O)N1CCc2sccc2C1COc1cccc(OC)c1)C(=O)Cc1ccccc1 (stereo not drawn) [RU-0036264] | < 25% | 51 to 74% | 100 to 1000 nM | 26 to 50% |  |  |  |  |  |
| CCN(CC)C(=O)Oc1ccc2c(ccn2Cc2cccc(C)c2)c1NC(=O)[C@H](C)OC(C)=O [RU-0075468] | < 25% | > 75% | < 100 nM | < 25% |  |  |  |  |  |
| COC(=O)C(Cc1ccccc1)NC(=O)C1CC1(c1ccccc1)c1ccccc1 (stereo not drawn) [RU-0028029] | > 75% | 51 to 74% | < 100 nM | 26 to 50% | > 1000 nM |  |  |  |  |
| COc1ccc(C(=O)c2ccccc2)c(O)c1O [RU-0001617] | 51 to 74% | 51 to 74% | > 1000 nM | < 25% | > 1000 nM |  |  |  |  |
| COc1cc(OC)cc(C2NC(=O)N(C)C3=C2C(=O)N(C2CCCCC2)C3)c1 (stereo not drawn) [RU-0047750] | 26 to 50% | > 75% | > 1000 nM | < 25% |  |  |  |  |  |
| CN(Cc1ccccc1)C(=O)CCC1CCN(C(=O)CCOc2ccccc2)CC1 [RU-0028727] | > 75% | > 75% | < 100 nM | 26 to 50% | < 100 nM |  |  |  |  |
| COCCNC(=O)c1ccc(CSc2nnc(-c3ccc(C)cc3)n2-c2ccccc2F)cc1 [RU-0051652] | < 25% | 51 to 74% | > 1000 nM | < 25% |  |  |  |  |  |
| Cc1cc(C)c2c(c1C(=O)N1CCC3(CC1)C(=O)NCN3c1ccccc1)CC(C)(C)C2=O [RU-0025771] |  | > 75% |  | 26 to 50% |  | > 1000 nM | > 75% |  |  |
| CCOc1ccccc1C(=O)NNC(=O)COc1cc(C)cc(C)c1 [RU-0023245] | > 75% | > 75% | > 1000 nM | < 25% | > 1000 nM |  |  |  |  |
| CCOC(=O)C(c1ccc(OC)c(OC)c1)C1C=CC(NC(=O)c2ccc3c(c2)OCO3)C1 (stereo not drawn) [RU-0049030] | 26 to 50% | > 75% | < 100 nM | < 25% |  |  |  |  |  |
| COc1ccccc1N1CCN(C(=O)c2cc3n(n2)CCN(Cc2c(F)cccc2Cl)C3=O)CC1 [RU-0043595] | 51 to 74% | > 75% | < 100 nM | < 25% | > 1000 nM |  |  |  |  |
| CCCCc1nc(CN2CCc3c([nH]c4ccccc34)C2c2cccc(OC)c2OC)c[nH]1 (stereo not drawn) [RU-0031879] | 51 to 74% | > 75% | < 100 nM | 26 to 50% | > 1000 nM |  |  |  |  |
| CCOC(=O)C(c1cccc(OC)c1)C1C=CC(NC(=O)c2cccs2)C1 (stereo not drawn) [RU-0074560] | 26 to 50% | 51 to 74% | > 1000 nM | < 25% |  |  |  |  |  |
| COCCCN(CC(=O)N1CCc2sccc2C1c1ccc(OC)cc1)C(=O)C(C)(C)CCl (stereo not drawn) [RU-0069950] | 51 to 74% | > 75% | < 100 nM | < 25% | > 1000 nM |  |  |  |  |
| COc1ccc(N2CCN(C(=O)C3CC=CCC3C(=O)NC(c3ccccc3)c3ccccn3)CC2)cc1 (stereo not drawn) [RU-0026507] | 26 to 50% | > 75% | > 1000 nM | < 25% |  |  |  |  |  |
| COCCCN(CC(=O)N1CCc2sccc2C1COc1cccc(OC)c1)C(=O)c1ccccc1OC (stereo not drawn) [RU-0036294] | 51 to 74% | > 75% | 100 to 1000 nM | 26 to 50% |  |  |  |  |  |
| Cc1ccc(-n2nc(C)c(CCC(=O)N3CCc4ccccc4C3)c2C)cc1Cl [RU-0026074] | 51 to 74% | > 75% |  | 26 to 50% | > 1000 nM |  |  |  |  |
| C=C[C@@](C)(O)CCC1C(=C)CCC2[C@@](C)(CO)CCC[C@]12C (stereo partly drawn) [RU-0001327] | < 25% | > 75% | > 1000 nM | < 25% |  |  |  |  |  |
| CC(NC(=O)c1cc2n(n1)CCN(Cc1c(Cl)cccc1Cl)C2=O)c1ccccc1 (stereo not drawn) [RU-0045115] | 26 to 50% | > 75% | < 100 nM | < 25% |  |  |  |  |  |
| COc1ccc(-c2nnc(SCc3ccc(C#N)cc3)n2-c2ccc(C)cc2)cc1 [RU-0046426] | 26 to 50% | > 75% | > 1000 nM | < 25% |  |  |  |  |  |
| Cc1ccc(CN(CCc2ccccc2)C(=O)CN(C(=O)NC(C)(C)C)C(C)C)o1 [RU-0072008] | 26 to 50% | > 75% | < 100 nM | < 25% |  |  |  |  |  |
| O=C1CN(S(=O)(=O)c2c(F)cc(F)cc2F)CC2c3cccc(F)c3CCN12 (stereo not drawn) [RU-0076832] | < 25% | > 75% | < 100 nM | < 25% |  |  |  |  |  |
| COCCN(Cc1cc(Cl)ccc1OS(=O)(=O)c1ccc(F)cc1)C(=O)C1CCC1 [RU-0035287] | 51 to 74% | > 75% | < 100 nM | < 25% | < 100 nM |  |  |  |  |
| COc1nc(NC(C)C)nc(NC(C)C)n1 [RU-0001534] | 51 to 74% |  |  | < 25% | > 1000 nM |  |  | < 100 nM | > 75% |
| COc1nc(OCC#N)nc(N2CCCCC2)n1 [RU-0006256] | 51 to 74% | > 75% | < 100 nM | 26 to 50% | > 1000 nM |  |  |  |  |
| CN(C)c1nc(N(C)C)nc(N(C)C)n1 [RU-0000619] | 51 to 74% | 51 to 74% | < 100 nM | < 25% | > 1000 nM |  |  |  |  |
| COc1ccc(N2CCN(C(=O)C3CC=CCC3C(=O)NCCCCc3ccccc3)CC2)cc1 (stereo not drawn) [RU-0026167] | 51 to 74% | 51 to 74% | < 100 nM | 26 to 50% | > 1000 nM |  |  |  |  |

From patent US20130324522A1, “INSECT ODORANT RECEPTOR ANTAGONISTS” (THE ROCKEFELLER UNIVERSITY, priority 2010, published 2013)
